Source: US8921267B2, “Safening 6-(trisubstituted phenyl)-4-amino-2-pyridinecarboxylate herbicide injury on cereal crops” (Dow AgroSciences LLC, priority 2008, dated 2014)

Assays:
[1] = system: wild buckwheat (Polygonum convolvulus L; POLCO); experiment: Postemergence herbicidal activity, greenhouse, visual injury: wild buckwheat; type: in vivo
Procedure, shortened: (§1)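 Percent visual injury relative to solvent-blank controls, rated 20-22 d after treatment on a 0 (none) to 100 (complete kill) scale. Expected mixture response came from Colby's equation, Expected=A+B−(A×B/100). Sprays contained 1.5% v/v crop oil concentrate at 187 L/ha.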

[2] = system: kochia (Kochia scoparia L; KCHSC); experiment: Postemergence herbicidal activity, greenhouse, visual injury: kochia; type: in vivo; design: key: % visual injury: 0 = no injury, 100 = complete kill
Experimental: (§2) Evaluation of Postemergence Herbicidal Safening in Cereal Crops
(§3) Seeds of the desired test plant species were planted in Sun Gro MetroMix® 306 planting mixture, which typically has a pH of 6.0 to 6.8 and an organic matter content of about 30 percent, in plastic pots with a surface area of 103.2 square centimeters (cm^2). When required to ensure good germination and healthy plants, a fungicide treatment and/or other chemical or physical treatment was applied. The plants were grown for 7-36 days (d) in a greenhouse with an approximate 14-hour (h) photoperiod which was maintained at about 18° C. during the day and 17° C. during the night. Nutrients and water were added on a regular basis and supplemental lighting was provided with overhead metal halide 1000-Watt lamps as necessary. The plants were employed for testing when they reached the second or third true leaf stage.
(§4) Weighed amounts of esters (methyl) or salts (TEA [triethylammonium], K [potassium]) of 4-amino-3-chloro-6-(4-chloro-2-fluoro-3-methoxyphenyl)pyridine-2-carboxylic acid (Compound 1) were dissolved in a volume of 97:3 volume/volume (v/v) acetone/dimethylsulfoxide (DMSO) to obtain stock solutions. […] The concentrated stock solutions were diluted with an aqueous mixture of 1.5% v/v of Agri-dex crop oil concentrate to provide the appropriate application rates. Compound requirements are based upon a 12 mL application volume at a rate of 187 liters per hectare (L/ha). Stocks solutions of the safeners were prepared following the same procedure. Spray solutions of the safeners and experimental compound mixtures were prepared by adding the stock solutions to the appropriate amount of dilution solution to form a 12 mL spray solution with active ingredients in two-way combinations. Formulated compounds were applied to the plant material with an overhead Mandel track sprayer equipped with 8002E nozzles calibrated to deliver 187 L/ha over an application area of 0.503 square meters (m^2) at a spray height of 18 inches (43 centimeters (cm)) above average plant canopy. Control plants were sprayed in the same manner with the solvent blank.
(§5) The treated plants and control plants were placed in a greenhouse as described above and watered by sub-irrigation to prevent wash-off of the test compounds. After 20-22 d, the condition of the test plants as compared with that of the control plants was determined visually and scored on a scale of 0 to 100 percent where 0 corresponds to no injury and 100 corresponds to complete kill.
(§6) Colby's equation was used to determine the herbicidal effects expected from the mixtures (Colby, S. R. Calculation of the synergistic and antagonistic response of herbicide combinations. Weeds 1967, 15, 20-22.).
(§7) The following equation was used to calculate the expected activity of mixtures containing two active ingredients, A and B: Expected=A+B−(A×B/100)
(§8) A=observed efficacy of active ingredient A at the same concentration as used in the mixture.
(§9) B=observed efficacy of active ingredient B at the same concentration as used in the mixture.

[3] = system: wheat (Triticum aestivum L; TRZAS); experiment: Postemergence herbicidal safening, greenhouse, visual injury: wheat; type: in vivo
Procedure, shortened: (§10)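 Injury was rated visually on a 0 (none) to 100% (complete kill) scale 20-22 d after treatment, relative to solvent-blank plants. Treatments were two-way safener/herbicide combinations in 1.5% v/v crop oil concentrate, applied overhead at 187 L/ha to plants at the 2nd–3rd true leaf stage. Colby's equation gave expected mixture effects.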

[4] = system: Russian thistle (Salsola iberica L; SASKR); experiment: Postemergence herbicidal activity, greenhouse, visual injury: Russian thistle; type: in vivo; design: key: visual injury, 0–100%: 0 = no injury, 100 = complete kill
Procedure, shortened: as §1

[5] = system: scented mayweed (Matricaria chamomila L; MATCH); experiment: Postemergence herbicidal activity, greenhouse, visual injury: scented mayweed; type: in vivo; design: key: % visual injury: 0 = no injury, 100 = complete kill
Experimental: as §2, §3, §4, §5, §6, §7, §8, §9

[6] = system: barley (Hordeum vulgare L; HORVS); experiment: Postemergence herbicidal safening, greenhouse, visual injury: barley; type: in vivo; design: key to HORVS Ob (Observed values): % visual injury: 0 = no injury, 100 = complete kill
Procedure, shortened: as §10

barley (HORVW) = experiment: Postemergence herbicidal safening, greenhouse, visual injury: barley (HORVW)
[7] = system: corn poppy (Papaver rhoeas L; PAPRH); experiment: Postemergence herbicidal activity, greenhouse, visual injury: corn poppy; type: in vivo
Procedure, shortened: (§11)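 Greenhouse-grown weeds at second–third true leaf stage were sprayed postemergence at 187 L/ha with safener/herbicide two-way mixtures in 1.5% v/v crop oil concentrate. Visual injury was scored 0–100% against solvent-blank controls after 20-22 d. Expected mixture activity was computed by Colby's equation.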

[8] = system: bird's-eye speedwell (Veronica persica L; VERPE); experiment: Postemergence herbicidal activity, greenhouse, visual injury: bird's-eye speedwell; type: in vivo; design: key: visual injury, 0–100%: 0 = no injury, 100 = complete kill
Procedure, shortened: as §1

[9] = system: cleavers (Galium aparine L; GALAP); experiment: Postemergence herbicidal activity, greenhouse, visual injury: cleavers; type: in vivo; design: key: visual injury, 0–100%: 0 = no injury, 100 = complete kill
Procedure, shortened: as §1

[10] = system: durum wheat (Triticum durum L; TRZDU); experiment: Postemergence herbicidal safening, greenhouse, visual injury: durum wheat; type: in vivo
Procedure, shortened: as §10

[11] = system: chickweed (Stellaria media L; STEME); experiment: Postemergence herbicidal activity, greenhouse, visual injury: chickweed; type: in vivo; design: key: visual injury, 0–100%: 0 = no injury, 100 = complete kill
Procedure, shortened: as §1

[12] = system: wild pansy (Viola tricolor L; VIOTR); experiment: Postemergence herbicidal activity, greenhouse, visual injury: wild pansy; type: in vivo; design: key: visual injury, 0–100%: 0 = no injury, 100 = complete kill
Procedure, shortened: as §11

[13] = system: wheat (Triticum aestivum L; TRZAW); experiment: Postemergence herbicidal safening, greenhouse, visual injury: wheat (TRZAW); type: in vivo
Procedure, shortened: as §10

[14] = system: purple deadnettle (Lamium purpureum L; LAMPU); experiment: Postemergence herbicidal activity, greenhouse, visual injury: purple deadnettle; type: in vivo
Procedure, shortened: as §11

C=CCN(CC=C)C(=O)C(Cl)Cl [Dichlormid, N,N-diallyl-2,2-dichloroacetamide, reference compound]
POLCO Ob ([1]; applied alone at 17.5 g/ha): 0%
POLCO Ob ([1]; applied alone at 35 g/ha): 0%
POLCO Ob ([1]; applied alone at 70 g/ha): 0%
POLCO Ob ([1]; applied alone at 140 g/ha): 0%
KCHSC Ob ([2]; applied alone at 17.5 g/ha): 0%
KCHSC Ob ([2]; applied alone at 35 g/ha): 0%
KCHSC Ob ([2]; applied alone at 70 g/ha): 0%
KCHSC Ob ([2]; applied alone at 140 g/ha): 0%
TRZAS Ob ([3]; applied alone at 17.5 g/ha): 0%
TRZAS Ob ([3]; applied alone at 35 g/ha): 0%
TRZAS Ob ([3]; applied alone at 70 g/ha): 0%
TRZAS Ob ([3]; applied alone at 140 g/ha): 0%
SASKR Ob ([4]; applied alone at 17.5 g/ha): 0%
SASKR Ob ([4]; applied alone at 35 g/ha): 0%
SASKR Ob ([4]; applied alone at 70 g/ha): 0%
SASKR Ob ([4]; applied alone at 140 g/ha): 0%
MATCH Ob ([5]; applied alone at 17.5 g/ha): 0%
MATCH Ob ([5]; applied alone at 35 g/ha): 0%
MATCH Ob ([5]; applied alone at 70 g/ha): 0%
MATCH Ob ([5]; applied alone at 140 g/ha): 0%
HORVS Ob ([6]; applied alone at 17.5 g/ha): 0%
HORVS Ob ([6]; applied alone at 35 g/ha): 0%
HORVS Ob ([6]; applied alone at 70 g/ha): 0%
HORVS Ob ([6]; applied alone at 140 g/ha): 0%
HORVS Ob (Observed values) ([6]; safener 4.4 g/ha alone): 0
HORVS Ob (Observed values) ([6]; safener 8.8 g/ha alone): 0
HORVS Ob (Observed values) ([6]; safener 17.5 g/ha alone): 0
HORVS Ob (Observed values) ([6]; safener 35 g/ha alone): 0
HORVW Ob (Observed values) (barley (HORVW); safener 4.4 g/ha alone): 0%
HORVW Ob (Observed values) (barley (HORVW); safener 8.8 g/ha alone): 0%
HORVW Ob (Observed values) (barley (HORVW); safener 17.5 g/ha alone): 0%
HORVW Ob (Observed values) (barley (HORVW); safener 35 g/ha alone): 0%
PAPRH Ob ([7]; applied alone at 17.5 g/ha): 0%
PAPRH Ob ([7]; applied alone at 35 g/ha): 0%
PAPRH Ob ([7]; applied alone at 70 g/ha): 0%
PAPRH Ob ([7]; applied alone at 140 g/ha): 0%
PAPRH Ob (Observed values) ([7]; safener 4.4 g/ha alone): 0
PAPRH Ob (Observed values) ([7]; safener 8.8 g/ha alone): 0
PAPRH Ob (Observed values) ([7]; safener 17.5 g/ha alone): 0
PAPRH Ob (Observed values) ([7]; safener 35 g/ha alone): 0
VERPE Ob ([8]; applied alone at 17.5 g/ha): 0%
VERPE Ob ([8]; applied alone at 35 g/ha): 0%
VERPE Ob ([8]; applied alone at 70 g/ha): 0%
VERPE Ob ([8]; applied alone at 140 g/ha): 0%
GALAP Ob ([9]; applied alone at 17.5 g/ha): 0%
GALAP Ob ([9]; applied alone at 35 g/ha): 0%
GALAP Ob ([9]; applied alone at 70 g/ha): 0%
GALAP Ob ([9]; applied alone at 140 g/ha): 0%
TRZDU Ob (Observed values) ([10]; safener 4.4 g/ha alone): 0%
TRZDU Ob (Observed values) ([10]; safener 8.8 g/ha alone): 0%
TRZDU Ob (Observed values) ([10]; safener 17.5 g/ha alone): 0%
TRZDU Ob (Observed values) ([10]; safener 35 g/ha alone): 0%
STEME Ob ([11]; applied alone at 17.5 g/ha): 0%
STEME Ob ([11]; applied alone at 35 g/ha): 0%
STEME Ob ([11]; applied alone at 70 g/ha): 0%
STEME Ob ([11]; applied alone at 140 g/ha): 0%
VIOTR Ob ([12]; applied alone at 17.5 g/ha): 0%
VIOTR Ob ([12]; applied alone at 35 g/ha): 0%
VIOTR Ob ([12]; applied alone at 70 g/ha): 0%
VIOTR Ob ([12]; applied alone at 140 g/ha): 0%
TRZAW Ob (Observed values) ([13]; safener 4.4 g/ha alone): 0%
TRZAW Ob (Observed values) ([13]; safener 8.8 g/ha alone): 0%
TRZAW Ob (Observed values) ([13]; safener 17.5 g/ha alone): 0%
TRZAW Ob (Observed values) ([13]; safener 35 g/ha alone): 0%
LAMPU Ob ([14]; applied alone at 17.5 g/ha): 0%
LAMPU Ob ([14]; applied alone at 35 g/ha): 0%
LAMPU Ob ([14]; applied alone at 70 g/ha): 0%
LAMPU Ob ([14]; applied alone at 140 g/ha): 0%
LAMPU Ob (Observed values) ([14]; safener 4.4 g/ha alone): 0
LAMPU Ob (Observed values) ([14]; safener 8.8 g/ha alone): 0
LAMPU Ob (Observed values) ([14]; safener 17.5 g/ha alone): 0
LAMPU Ob (Observed values) ([14]; safener 35 g/ha alone): 0
